Data from US20150164762A1, “USE OF ETHANOLAMINE PHOSPHATE” (priority 2012, published 2015).

Test system: BEAS-2B
Assay: Comprehensive gene expression analysis with Whole Human Genome DNA microarray after EP treatment
Type: cell-based
Experimental: Cells of the established normal human airway epithelial cell line BEAS-2B were used in the experiment. These cells were expansively cultured in 10% FBS RPMI-1640, and seeded at a density of 1×10^5/cm^2 on a 24-well plate. After 24 hours 0.1% FBS RPMI-1640 was substituted, and EP was administered to a final concentration of 0 or 1 mM (n=4). After 24 hours, the cells were used as the DNA microarray samples. RNA was extracted using a QIAGEN RNeasy Mini Kit. The DNA microarray test was performed using a Whole Human Genome DNA microarray 4×44K (Agilent), and the necessary labeling reagents and the like for the DNA microarray test were all from Agilent. The DNA microarray test data were analyzed statistically with GeneSpring (Agilent) dedicated analysis software, and gene function analysis (Gene Ontology (GO) analysis) was performed based on differential expression. The purpose of the GO analysis is to determine stochastically the degree to which gene sets with statistically significant differential expression correspond to known functional classification gene sets. […] The p-value is calculated according to the following formula.

[1] = probe A_23_P92499, 1 mM EP, 24 h
[2] = probe A_23_P94754, NM_005118, EP vs control
[3] = probe A_23_P94754, 1 mM EP, 24 h
[4] = probe A_23_P104798, NM_001562, EP vs control
[5] = probe A_23_P104881, 1 mM EP, 24 h
[6] = probe A_23_P105138, NM_001752, EP vs control
[7] = probe A_23_P105138, 1 mM EP, 24 h
[8] = probe A_23_P105803, 1 mM EP, 24 h
[9] = probe A_23_P110052, 1 mM EP, 24 h
[10] = probe A_23_P110151, 1 mM EP, 24 h
[11] = probe A_23_P114662, NM_001889, EP vs control
[12] = probe A_23_P115286, 1 mM EP, 24 h
[13] = probe A_23_P118061, 1 mM EP, 24 h
[14] = probe A_23_P118174, 1 mM EP, 24 h
[15] = probe A_23_P122052, NM_001008397, EP vs control
[16] = probe A_23_P122216, NM_002317, EP vs control
[17] = probe A_23_P122216, 1 mM EP, 24 h
[18] = probe A_23_P122775, NM_032730, EP vs control
[19] = probe A_23_P126844, 1 mM EP, 24 h
[20] = probe A_23_P127322, NM_018055, EP vs control
[21] = probe A_23_P127406, NM_018039, EP vs control
[22] = probe A_23_P128050, 1 mM EP, 24 h
[23] = probe A_23_P128215, 1 mM EP, 24 h
[24] = probe A_23_P128230, 1 mM EP, 24 h
[25] = probe A_23_P129313, NM_001159508, EP vs control
[26] = probe A_23_P131588, NM_014482, EP vs control
[27] = probe A_23_P132388, NM_005138, EP vs control
[28] = probe A_23_P134925, 1 mM EP, 24 h
[29] = probe A_23_P135024, 1 mM EP, 24 h
[30] = probe A_23_P135248, NM_006664, EP vs control
[31] = probe A_23_P136116, NM_001004320, EP vs control
[32] = probe A_23_P136493, NM_013962, EP vs control
[33] = probe A_23_P138635, 1 mM EP, 24 h
[34] = probe A_23_P143242, 1 mM EP, 24 h
[35] = probe A_23_P145357, 1 mM EP, 24 h
[36] = probe A_23_P146644, 1 mM EP, 24 h

NCCOP(=O)(O)O [EP, Ethanolamine phosphate]
CIDEC expression log2 [ratio] (probe A_23_P92025, 1 mM EP, 24 h): −0.754
TLR2 expression R*: Ratio to control [1]: 0.632 times
TLR2 expression log2 [ratio] [1]: −0.662
TNFSF15 gene expression, R* ratio to control [2]: 0.399 times
TNFSF15 gene expression, log2 [ratio] [2]: −1.327
TNFSF15 expression R*: Ratio to control [3]: 0.399 times
TNFSF15 expression log2 [ratio] [3]: −1.327
IL18 gene expression, R* ratio to control [4]: 0.641 times
IL18 gene expression, log2 [ratio] [4]: −0.641
ROBO4 expression R*: Ratio to control [5]: 1.785 times
ROBO4 expression log2 [ratio] [5]: 0.836
CAT gene expression, R* ratio to control [6]: 1.505 times
CAT gene expression, log2 [ratio] [6]: 0.589
CAT expression R*: Ratio to control [7]: 1.505 times
CAT expression log2 [ratio] [7]: 0.589
FGF9 expression R*: Ratio to control [8]: 1.606 times
FGF9 expression log2 [ratio] [8]: 0.684
FOXL2 expression R*: Ratio to control [9]: 0.352 times
FOXL2 expression log2 [ratio] [9]: −1.504
ARHGAP24 expression R*: Ratio to control [10]: 1.670 times
ARHGAP24 expression log2 [ratio] [10]: 0.740
CRYZ gene expression, R* ratio to control [11]: 1.632 times
CRYZ gene expression, log2 [ratio] [11]: 0.707
BCL10 expression R*: Ratio to control [12]: 0.542 times
BCL10 expression log2 [ratio] [12]: −0.883
CKLF expression R*: Ratio to control [13]: 1.501 times
CKLF expression log2 [ratio] [13]: 0.586
PLK1 expression R*: Ratio to control [14]: 2.447 times
PLK1 expression log2 [ratio] [14]: 1.291
GPX8 gene expression, R* ratio to control [15]: 1.413 times
GPX8 gene expression, log2 [ratio] [15]: 0.499
LOX gene expression, R* ratio to control [16]: 1.637 times
LOX gene expression, log2 [ratio] [16]: 0.711
LOX expression R*: Ratio to control [17]: 1.637 times
LOX expression log2 [ratio] [17]: 0.711
RTN4IP1 gene expression, R* ratio to control [18]: 1.436 times
RTN4IP1 gene expression, log2 [ratio] [18]: 0.522
TNFRSF25 expression R*: Ratio to control [19]: 0.532 times
TNFRSF25 expression log2 [ratio] [19]: −0.909
NODAL gene expression, R* ratio to control [20]: 0.450 times
NODAL gene expression, log2 [ratio] [20]: −1.154
KDM4D gene expression, R* ratio to control [21]: 1.448 times
KDM4D gene expression, log2 [ratio] [21]: 0.534
BCL2L14 expression R*: Ratio to control [22]: 0.594 times
BCL2L14 expression log2 [ratio] [22]: −0.751
SOCS2 expression R*: Ratio to control [23]: 1.720 times
SOCS2 expression log2 [ratio] [23]: 0.783
NR4A1 expression R: Ratio to control [24]: 0.302 times
NR4A1 expression log2 [ratio] [24]: −1.727
IVD gene expression, R* ratio to control [25]: 1.473 times
IVD gene expression, log2 [ratio] [25]: 0.559
BMP10 gene expression, R* ratio to control [26]: 0.625 times
BMP10 gene expression, log2 [ratio] [26]: −0.678
SCO2 gene expression, R* ratio to control [27]: 1.495 times
SCO2 gene expression, log2 [ratio] [27]: 0.580
BNIP3L expression R*: Ratio to control [28]: 0.633 times
BNIP3L expression log2 [ratio] [28]: −0.661
ARHGEF6 expression R*: Ratio to control [29]: 0.270 times
ARHGEF6 expression log2 [ratio] [29]: −1.889
CCL27 gene expression, R* ratio to control [30]: 0.556 times
CCL27 gene expression, log2 [ratio] [30]: −0.846
TMEM195 gene expression, R* ratio to control [31]: 1.962 times
TMEM195 gene expression, log2 [ratio] [31]: 0.972
NRG1 gene expression, R* ratio to control [32]: 0.646 times
NRG1 gene expression, log2 [ratio] [32]: −0.830
BNIP3 expression R*: Ratio to control [33]: 0.374 times
BNIP3 expression log2 [ratio] [33]: −1.418
CEBPB expression R*: Ratio to control [34]: 0.617 times
CEBPB expression log2 [ratio] [34]: −0.697
BAK1 expression R*: Ratio to control [35]: 0.402 times
BAK1 expression log2 [ratio] [35]: −1.313
ANXA2 expression R*: Ratio to control [36]: 1.673 times
ANXA2 expression log2 [ratio] [36]: 0.742
